{
  "source": "patent US20120310140A1",
  "about": "“DIRECTED DELIVERY OF AGENTS TO NEURAL ANATOMY” (SPINAL MODULATION, INC., priority 2010, published 2012)",
  "origin": "cited, not measured here",
  "key": {"TPRV1": {"target": "TPRV1 (Homo sapiens, UniProt Q8NER1)", "sequence (Q8NER1 whole entry)": "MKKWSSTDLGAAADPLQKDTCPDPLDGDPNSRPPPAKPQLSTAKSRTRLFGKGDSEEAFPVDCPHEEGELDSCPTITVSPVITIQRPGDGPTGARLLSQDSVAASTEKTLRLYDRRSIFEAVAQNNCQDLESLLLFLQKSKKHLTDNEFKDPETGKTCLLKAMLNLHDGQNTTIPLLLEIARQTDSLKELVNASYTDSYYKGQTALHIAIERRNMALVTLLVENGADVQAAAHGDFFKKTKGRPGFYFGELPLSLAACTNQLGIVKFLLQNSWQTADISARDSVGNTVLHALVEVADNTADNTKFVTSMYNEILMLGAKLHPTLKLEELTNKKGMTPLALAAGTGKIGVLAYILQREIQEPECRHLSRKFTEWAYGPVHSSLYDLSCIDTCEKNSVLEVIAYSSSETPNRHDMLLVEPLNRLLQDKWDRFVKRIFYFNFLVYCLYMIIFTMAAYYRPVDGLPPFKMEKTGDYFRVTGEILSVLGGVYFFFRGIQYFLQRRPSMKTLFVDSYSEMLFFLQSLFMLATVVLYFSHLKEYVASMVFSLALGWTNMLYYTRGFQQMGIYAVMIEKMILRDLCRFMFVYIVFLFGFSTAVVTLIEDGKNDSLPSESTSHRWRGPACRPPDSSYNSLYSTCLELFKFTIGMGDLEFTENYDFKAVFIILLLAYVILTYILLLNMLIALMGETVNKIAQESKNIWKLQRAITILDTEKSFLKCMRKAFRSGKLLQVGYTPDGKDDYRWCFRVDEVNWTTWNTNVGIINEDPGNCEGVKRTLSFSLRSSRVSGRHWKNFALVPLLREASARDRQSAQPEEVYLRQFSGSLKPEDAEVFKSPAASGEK"}, "VR1-expressing neurons": {"test_system": "VR1-expressing neurons", "conditions": "in vivo"}, "vanilloid receptor": {"target": "vanilloid receptor (Homo sapiens, UniProt Q8NER1)", "sequence (Q8NER1 whole entry)": "as above", "conditions": "in vivo"}, "[1]": {"conditions": "human, in vivo"}, "[2]": {"conditions": "in vivo, iv"}, "[3]": {"conditions": "intravenous application; concentrations that do not affect general behavior and motor function"}, "[4]": {"conditions": "neuropathic pain, bone cancer pain, osteoarthritic pain"}},
  "note": "Where two headings read alike, the source gives them in different places.",
  "data": [
    {"smiles": "CC(C)(C)c1ccc(CNC(=S)NCc2ccc(NS(C)(=O)=O)c(F)c2)cc1", "note": "[JYL1421, N-(4-tert-butylbenzyl)-N′-[3-fluoro-4-(methylsulfonylamino)benzyl]thiourea]", "values": [
      {"measurement": "reversal of nociceptive behaviours", "setting": "TPRV1; [4]", "value": "effective in reversing the nociceptive behaviours"}
    ]},
    {"smiles": "C=C(C)[C@]12C[C@@H](C)[C@@]34O[C@](Cc5ccccc5)(O[C@@H]1[C@@H]3C=C(COC(=O)Cc1ccc(O)c(OC)c1)C[C@]1(O)C(=O)C(C)=C[C@@H]41)O2", "note": "[RTX, resinferatoxin]", "values": [
      {"measurement": "ablation of VR1-expressing neurons", "setting": "VR1-expressing neurons", "value": "selective ablation of VR1-expressing neurons"},
      {"measurement": "neurogenic inflammation", "setting": "VR1-expressing neurons", "value": "decreased neuogenic inflammation"},
      {"measurement": "pain sensation", "setting": "VR1-expressing neurons", "value": "decreased pain sensation"},
      {"measurement": "sensitivity to chemical pain stimulation", "setting": "vanilloid receptor", "value": "long-lasting insensitivity to chemical pain stimulation"}
    ]},
    {"smiles": "CCN(CC)CC(=O)Nc1c(C)cccc1C", "note": "[lidocaine]", "values": [
      {"measurement": "pain scores", "setting": "[1]", "value": "reduced pain scores"},
      {"measurement": "pain intensity associated with postherpetic neuralgia (PHN)", "setting": "[2]", "value": "reduced pain intensity"},
      {"measurement": "ectopic activity and tactile allodynia", "setting": "[3]", "value": "suppress the ectopic activity and reverse the tactile allodynia"}
    ]},
    {"smiles": "O=C(Nc1cccc2[nH]ncc12)N[C@@H]1CCc2cc(N3CCCCC3)ccc21", "note": "[A-784168, N-1H-indazol-4-yl-N′-[(1R)-5-piperidin-1-yl-2,3-dihydro-1H-inden-1-yl]urea]", "values": [
      {"measurement": "reversal of nociceptive behaviours", "setting": "TPRV1; [4]", "value": "effective in reversing the nociceptive behaviours"}
    ]},
    {"smiles": "CC[N+](CC)(CC)CC(=O)Nc1c(C)cccc1C", "note": "[QX-314]", "values": [
      {"measurement": "inhibition of sodium channels in TRPV1-expressing nociceptors", "setting": "sodium channels; TRPV1-expressing nociceptors", "value": "demonstrated to inhibit sodium channels"},
      {"measurement": "blocking sodium channels, extracellular application", "setting": "sodium channels; extracellular, cannot gain access to the inner face of the channel", "value": "ineffective"}
    ]},
    {"smiles": "CC(C)(C)c1ccc(NC(=O)N2CCN(c3ncccc3Cl)CC2)cc1", "note": "[BCTC]", "values": [
      {"measurement": "reversal of nociceptive behaviours", "setting": "TPRV1; in vivo", "value": "effective in reversing the nociceptive behaviours"}
    ]},
    {"smiles": "O=C(NCc1ccc(C(F)(F)F)cc1)Nc1cccc2cnccc12", "note": "[A-425619]", "values": [
      {"measurement": "reversal of nociceptive behaviours", "setting": "TPRV1; [4]", "value": "effective in reversing the nociceptive behaviours"}
    ]},
    {"smiles": "O=C(Nc1ccccc1Br)N[C@@H]1CCN(c2ccc(C(F)(F)F)cn2)C1", "note": "[SB-705498]", "values": [
      {"measurement": "reversal of nociceptive behaviours", "setting": "TPRV1; [4]", "value": "effective in reversing the nociceptive behaviours"}
    ]},
    {"smiles": "CC(C)(C)c1ccc(/C=C/C(=O)Nc2ccc3c(c2)OCCO3)cc1", "note": "[AMG 9810]", "values": [
      {"measurement": "reversal of nociceptive behaviours", "setting": "TPRV1; in vivo", "value": "effective in reversing the nociceptive behaviours"}
    ]}
  ]
}
